In US8663616B2, “Enzymatic peracid generation for use in oral care products” (E I du Pont de Nemours and Company, priority 2010, dated 2014):

T1: Wild Type (SEQ ID NO: 16) (Thermotoga maritima, UniProt Q9WXT2)
T1 construct: made in house; host or cells: E. coli
T1 sequence (Q9WXT2 1-325): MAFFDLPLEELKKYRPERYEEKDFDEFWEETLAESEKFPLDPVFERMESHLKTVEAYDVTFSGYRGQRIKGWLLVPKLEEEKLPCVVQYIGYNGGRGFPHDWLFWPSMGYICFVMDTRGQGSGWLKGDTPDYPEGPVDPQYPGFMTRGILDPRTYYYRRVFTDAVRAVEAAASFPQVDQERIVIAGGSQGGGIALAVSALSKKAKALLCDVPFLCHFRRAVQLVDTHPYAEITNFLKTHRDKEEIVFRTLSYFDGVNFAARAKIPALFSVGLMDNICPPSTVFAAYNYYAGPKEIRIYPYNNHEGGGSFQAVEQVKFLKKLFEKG


Columns and labels:
C277T (SEQ ID NO: 437) = biological target: T2, C277T (SEQ ID NO: 437) (Thermotoga maritima, UniProt Q9WXT2, C277T); format: biochemical; settings: 100 mM ester, 60 mM H2O2, 40 ppm enzyme, 95 mM phosphate pH 7.2, 37° C.
T2 construct: made in house; host or cells: E. coli
Experimental: (§1) To test various enzymes against an ester substrate, it was convenient to run up to 4 reactions simultaneously by staggering the beginning of each individual reaction by 0.5-1 min. Each individual reaction was performed in a glass vessel (height: 76 mm; o.d.: 33 mm; i.d.: 24 mm) equipped with a magnetic stirring bar. Four reaction vessels were banded together and kept at constant temperature in a jacketed one-liter, stainless steel, tempering beaker (KGW IsoTherm, # TSS-G 1000W) with circulating water controlled by a Thermo NesLab recirculation bath (Model # RTE-7 Digital One). Buffer (6 mL, 100 mM sodium phosphate buffer, pH 7.2) was added to each reaction vessel and allowed to equilibrate to 37° C. The ester substrate of interest was added to achieve 100 mM concentration. […] To follow the production of peracetic acid, 80 μL samples from each reaction were removed at specific intervals from 1 to 15 minutes. The sample was immediately quenched in a microfuge filter tube (NanoSep 30K VWR cat #82031-354) containing a volume and concentration of phosphoric acid solution that was sufficient to stop the enzymatic reaction (by lowering the pH between 2 and 3) and to dilute the sample for convenient HPLC analyses. The acid-quenched samples were centrifuged for 5 minutes to remove any particulates.

C277S (SEQ ID NO: 424) = biological target: T3, C277S (SEQ ID NO: 424) (Thermotoga maritima, UniProt Q9WXT2, C277S); format: biochemical; settings: 100 mM ester, 60 mM H2O2, 40 ppm enzyme, 95 mM phosphate pH 7.2, 37° C.
T3 construct: made in house; host or cells: E. coli
Experimental: as §1

[1] = biological target: T1, Wild Type (SEQ ID NO: 16); assay: Maximum peracetic acid from ester substrates with wild type perhydrolase (Example 14); format: biochemical; settings: 100 mM ester, 60 mM H2O2, 40 ppm enzyme, 95 mM phosphate pH 7.2, 37° C.
Experimental: as §1

[2] = biological target: T4, C277T/R296P (SEQ ID NO: 476) (Thermotoga maritima, UniProt Q9WXT2, C277T/R296P); format: biochemical; settings: 100 mM ester, 60 mM H2O2, 40 ppm enzyme, 95 mM phosphate pH 7.2, 37° C.
T4 construct: made in house; host or cells: E. coli
Experimental: as §1

[3] = Two-step bleaching of coffee-tea stained bovine enamel (Example 16)
Experimental: Bovine enamel incisors were prepared as indicated in Example 1. The stained enamel blocks were embedded in a 48 well plate to protect the dentin backside from solution exposure. A solution of 10 μM of each enzyme in 10 mM phosphate buffer, pH 7.2 was prepared and 500 μL of solution was incubated with each enamel substrate for 60 min. The enzyme solution was removed and each well was rinsed three times with an additional 500 μL of buffer. The enamel blocks were placed in a fresh well for the whitening process. A solution with a final concentration of 40 mM triacetin, 100 mM H2O2 in 50 mM phosphate pH 7.2 buffer was freshly prepared and 500 μL of solution was added to each enamel block. Over the course of 1 hr the enamel blocks were removed and a color measurement was obtained and then each was returned to the solution in the well plate. The whiteness index for each sample was monitored.

[4] = Retention of perhydrolase on hydroxyapatite (SDS-PAGE band strength); format: binding; settings: relative to enzyme input = 1
Experimental: Perhydrolase enzymes listed in Table 6 were assessed for binding to hydroxyapatite. A dispersion of hydroxyapatite nanoparticles (Aldrich 677418) was made at 0.5% solids in 10 mM phosphate buffer at pH 7.2. Enzyme stock solution was added to the hydroxyapatite dispersion to a final concentration of 10 μM and incubated for 30 min in a microcentrifuge tube with gentle agitation. Each sample was centrifuged for 5 min at 10000 rpm. The supernatant was removed and additional buffer was added. The particles were resuspended and transferred to a new tube. The process was repeated two additional times. Samples of the original input of enzyme, the supernatant removed from the particles with each wash step and the final particles were prepared for SDS-PAGE analysis by combining 60 μL of sample, 20 μL of LDS buffer and 8 μL of reducing agent (Nu-PAGE). Samples were heated at 85° C. for 10 min. 25 μL of each sample was loaded on a 4-12% BisTris gel (Invitrogen) and run at 115 volts for 1.5 h. The gel was removed and stained with a 1:1 dilution of Simply Blue stain (Invitrogen) overnight and destained for 4 h in deionized water. The gel was analyzed and detection of enzyme in each fraction was estimated based on the presence of a band. The results of the analysis are provided in Table 7 with an indication of the relative strength of each band in the gel compared to the enzyme input (input=1) to determine the strength of binding between the hydroxyapatite surface and each enzyme.

T2 sequence (Q9WXT2 whole entry C277T): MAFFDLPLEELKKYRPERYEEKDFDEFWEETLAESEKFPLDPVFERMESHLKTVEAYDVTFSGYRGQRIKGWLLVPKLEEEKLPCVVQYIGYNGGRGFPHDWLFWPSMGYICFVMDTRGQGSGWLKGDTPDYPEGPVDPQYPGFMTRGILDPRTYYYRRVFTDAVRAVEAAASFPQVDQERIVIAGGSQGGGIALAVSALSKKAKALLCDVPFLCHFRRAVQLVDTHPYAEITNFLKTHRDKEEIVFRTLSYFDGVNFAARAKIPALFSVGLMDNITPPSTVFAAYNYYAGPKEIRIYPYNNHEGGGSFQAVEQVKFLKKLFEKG
T4 sequence (Q9WXT2 whole entry C277T/R296P): as the sequence (Q9WXT2 whole entry C277T) above, with R296P counted along it

| Molecule | Maximum Peracetic Acid (PAA) (ppm), C277T (SEQ ID NO: 437) (C277T (SEQ ID NO: 437)) | Maximum Peracetic Acid (PAA) (ppm), C277S (SEQ ID NO: 424) (C277S (SEQ ID NO: 424)) | Maximum Peracetic Acid (PAA) (ppm), Wild Type (SEQ ID NO: 16) [1] | Maximum Peracetic Acid (PAA) (ppm), C277T/R296P (SEQ ID NO: 476) [2] | also measured |
| --- | --- | --- | --- | --- | --- |
| CC(=O)OC[C@H]1OC(OC(C)=O)[C@@H](O)[C@@H](OC(C)=O)[C@@H]1OC(C)=O (stereo partly drawn) [1,3,4,6-tetra-O-acetyl-mannopyranose] | 3436 ppm | 3593 ppm | 2361 ppm |  |  |
| CO[C@@H]1OC[C@@H](OC(C)=O)[C@H](OC(C)=O)[C@H]1OC(C)=O [β-methyl xyloside triacetin] | 3635 ppm | 3856 ppm |  |  |  |
| CC(=O)OCCOC(C)=O [Ethylene glycol diacetate] | 1059 ppm | 1007 ppm | 794 ppm | 1020 ppm |  |
| CC(=O)N[C@@H]1[C@@H](OC(C)=O)[C@H](OC(C)=O)[C@@H](COC(C)=O)O[C@@H]1Cl [2-acetamido-2-deoxy-3,4,6 triacetyl-1-chloride-α-D-glucopyranose] | 899 ppm | 863 ppm | 548 ppm | 876 ppm |  |
| C=CC(COC(C)=O)OC(C)=O (stereo not drawn) [3,4-diacetoxy-1-butene] | 2285 ppm | 2281 ppm | 1692 ppm | 2478 ppm |  |
| CC(=O)OCC(O)COC(C)=O [Diacetin] | 1132 ppm | 1013 ppm | 1160 ppm | 1087 ppm |  |
| CC(=O)OCc1ccc(C=O)o1 [5-acetoxymethyl-2-furaldehyde] | 1125 ppm | 1185 ppm | 778 ppm | 1136 ppm |  |
| CC(=O)OCCCCCOC(C)=O [1,5-pentanediol diacetate] | 484 ppm | 335 ppm | 435 ppm | 364 ppm |  |
| CC(=O)OC1OC[C@@H](OC(C)=O)[C@@H](OC(C)=O)[C@H]1OC(C)=O (stereo partly drawn) [1,2,3,4-tetra-O-acetyl-ribopyranose] | 3361 ppm | 3525 ppm | 2278 ppm | 3503 ppm |  |
| CC(=O)OC[C@H]1OC=C[C@@H](OC(C)=O)[C@@H]1OC(C)=O [Tri-O-acetyl glucal] | 1319 ppm | 1047 ppm | 729 ppm | 1034 ppm |  |
| CC(=O)OC[C@H]1O[C@@H](S)[C@H](OC(C)=O)[C@@H](OC(C)=O)[C@@H]1OC(C)=O [1-thio-β-D glucose-2,3,4,6-tetraacetate] | 171 ppm | 0 ppm | 156 ppm | 147 ppm |  |
| CC(=O)OC[C@H]1O[C@@H](OC(C)=O)[C@H](OC(C)=O)[C@H]1OC(C)=O [β-D-xylofuranose tetraacetate] | 3481 ppm | 3354 ppm | 2384 ppm | 3158 ppm |  |
| CC(=O)O[C@@H]1O[C@H](CO)[C@@H](OC(C)=O)[C@H](OC(C)=O)[C@H]1OC(C)=O [β-D-glucopyranose,1,2,3,4-tetraacetate] | 2225 ppm | 2309 ppm | 2129 ppm | 2235 ppm |  |
| CC(=O)Oc1ccc(C(=O)O)cc1 [4-acetoxybenzoic acid] | 426 ppm | 604 ppm | 398 ppm | 485 ppm |  |
| CC(=O)OC[C@H]1O[C@@H](OC(C)=O)[C@H](OC(C)=O)[C@@H](OC(C)=O)[C@H]1OC(C)=O [β-D-galactose pentaacetate] | 2546 ppm | 2539 ppm | 764 ppm | 1947 ppm |  |
| COCC(C)OC(C)=O (stereo not drawn) [Propylene glycol methyl ether acetate] | 197 ppm | 173 ppm | 177 ppm | 181 ppm |  |
| EZ-4: C277S-link1-(GK)5, SEQ ID NO: 427 (protein) MAFFDLPLEELKKYRPERYEEKDFDEFWEETLAESEKFPLDPVFERMESHLKTVEAYDVTFSGYRGQRIKGWLLVPKLEEEKLPCVVQYIGYNGGRGFPHDWLFWPSMGYICFVMDTRGQGSGWLKGDTPDYPEGPVDPQYPGFMTRGILDPRTYYYRRVFTDAVRAVEAAASFPQVDQERIVIAGGSQGGGIALAVSALSKKAKALLCDVPFLCHFRRAVQLVDTHPYAEITNFLKTHRDKEEIVFRTLSYFDGVNFAARAKIPALFSVGLMDNISPPSTVFAAYNYYAGPKEIRIYPYNNHEGGGSFQAVEQVKFLKKLFEKGGPGSGGAGSPGSAGGPGSGKGKGKGKGK |  |  |  |  | Whiteness Index 0 min ([3]; two-step: 10 μM enzyme 60 min, rinsed, then 40 mM triacetin, 100 mM H2O2, pH 7.2, before step 2): −158.9; ΔWI ([3]; two-step, 0 to 60 min): 69.4; Whiteness Index 5 min ([3]; two-step, 5 min in triacetin/H2O2): −143.6; Whiteness Index 15 min ([3]; two-step, 15 min in triacetin/H2O2): −149.5; Whiteness Index 30 min ([3]; two-step, 30 min in triacetin/H2O2): −129.4; Whiteness Index 45 min ([3]; two-step, 45 min in triacetin/H2O2): −106.5; Whiteness Index 60 min ([3]; two-step, 60 min in triacetin/H2O2): −89.5; Unbound (relative band strength) ([4]; 10 μM enzyme, 0.5% hydroxyapatite, pH 7.2): 0.5; HAP Particles (relative band strength) ([4]; enzyme retained on particles after washes): 0.4; Wash1 (relative band strength) [4]: 0.05; Wash2 (relative band strength) [4]: 0.05 |
